# From patent US12590950B2, “Methods for predicting ER-mediated DNA damage” (UNIVERSITY OF MASSACHUSETTS, priority 2019, dated 2026)
# “Also recorded” adds a separate entry of the source.
# Assays:
# T47D cells [1] = assay: γH2AX immunostaining (DNA damage) in T47D cells; format: cell-based, human; conditions: T47D, 24 h; E2 10 or 100 nM, BP3 1 or 5 μM, PP 1 or 5 μM; vs control
# Description: (§1) Immunostaining: Cells were grown in clearing media for 48 h and plated on 20 mm coverslip in 12 well plates with a density of 2×10^5 cells/well. […] Cells were washed with 1×PBS, blocked in 2% BSA/PBS with 0.1% Triton-X 100 for 1 hr at room temperature (RT), incubated overnight with γH2AX antibody (Cell Signaling #9718 S) or ERα antibody (Santa Cruz Biotechnology #sc-8002) at 4° C. and 1 hour with secondary antibody. S9.6: Cells were fixed in ice-cold 100% methanol for 10 min at −20° C., permeabilized in 100% acetone for 1 min at RT, blocked for 30 min in saline sodium citrate pH 7 (SSC, 4×), 3% BSA, 0.1% Triton-X and incubated with S9.6 (Kerafast #ENH001) 2 hr at RT followed by 1 h with secondary antibody. If indicated, slides were treated with RNase H (NEB #M0297L) for 4 hr at 37° C. prior to incubation with primary antibody. Stained cells were mounted with Vectashield mounting medium containing DAPI (Vector Laboratories #H-1200). Slides were imaged at 60× (immersion oil) with Nikon A1 Spectral Confocal microscope. Analysis of γH2AX and S9.6 intensity per nucleus or foci per nucleus was calculated using Nikon analysis software, where DAPI was used as a mask for the nucleus.
# MCF-7 cells [2] = assay: γH2AX immunostaining (DNA damage) in MCF-7 cells; format: cell-based, human; conditions: E2 10-100 nM, BP3 1-30 μM, PP 1-30 μM
# Description: as §1
# T47D cells [3] = assay: 53BP1 immunostaining in T47D cells; format: cell-based, human; conditions: E2 10-100 nM, BP3 1-5 μM, PP 1-5 μM
# MCF-7 cells [4] = assay: 53BP1 immunostaining in MCF-7 cells; format: cell-based, human; conditions: E2 10-100 nM, BP3 1-5 μM, PP 1-5 μM
# TFF1 = assay: RT-qPCR of estrogen-responsive gene TFF1 in T47D cells; format: cell-based, human; conditions: T47D; for expression of TFF1 vs control: 5 μM
# Description: (§2) RT-qPCR: RNA from T47D cells, MCF-7 Cells or flash-frozen 4th mammary gland was isolated with TRIzol (Thermofisher Scientific #15596018) and Direct-zol RNA MiniPrep Plus (Zymo Research #R2072). cDNA was prepared with Protoscript II First Strand cDNA Synthesis Kit (New England Biolabs #E6560S) and qPCR for TFF1, progesterone receptor (PGR) and Amphiregulin (AREG) was performed on CFX96 Real-Time System thermocycler (Bio-Rad) using primers in Table 1.
# mammary epithelium = assay: Acute oral exposure of ovariectomized mice: nuclear S9.6 staining of mammary epithelium; format: in vivo, mouse; conditions: 4 days, E2 250, BP3 3,000, PP 10,000 μg/kg/day
# From the text: (§3) Animal Treatment: Forty mature female mice (8 weeks old) BALB/c mice were purchased from Jackson Laboratory and housed in temperature-controlled facilities with a 12-hour alternating day/night light cycle and fed LabChow 5058 ad libitum. All procedures were in accordance with the national guidelines for the care and use of animals and approved by the University of Massachusetts Amherst's Institutional Animal Care and Use Committee.
# (§4) The mice were ovariectomized before treatment. Briefly, each mouse was anaesthetized with a mix of isofluorance and oxygen. The flanks were shaved, sterilized with betadine and cleaned with alcohol. An incision was made to the skin on the right flank. The underlying muscle layer was nicked to reveal a small hole through which ovary was pulled out by grasping the periovarian fat. A Serrifin clamp was used to hold the ovary. After making sure the blood vessels were constricted to prevent […], the ovary was cut from the uterine horn. The periovarian fat was restored into the peritoneum. The peritoneum was closed with one or two stiches and the skin was closed with 9 mm wound clips. The procedure was repeated on the contralateral side. The mouse was monitored for a week post-procedure and wound clips were removed after 10 days. After 1 week of recovery, the mice began an acute oral treatment via pipette with one of three different compounds prepared in tocopherol-stripped corn oil for 4 days. Each mouse was administered 1 μL of oil per gram of body weight to deliver 250 μg/kg/d E2, 3000 μg/kg/d BP3 or 10000 μg/kg/d PP or vehicle control. […]
# (§5) Immunostaining of mouse mammary gland: Freshly cut […] paraffin-embedded sections were deparaffinized/rehydrated with 100% xylenes 3 times for 5 min each, 2 times with 100% ethanol for 5 min each, 95% ethanol for 3 min and 70% ethanol for 3 min. […] Analysis of S9.6 intensity per nucleus or foci per nucleus were calculated using Nikon analysis software, where DAPI was used as a mask for the nucleus. […] Positive cells were counted using ImageJ software. 1200 cells were counted to determine percent Ki67 positive.
# mammary gland = assay: Acute oral exposure of ovariectomized mice: nuclear γH2AX in mammary gland; format: in vivo, mouse; conditions: 4 days, E2 250, BP3 3,000, PP 10,000 μg/kg/day
# From the text: as §3, §4, §5
# Areg and Pgr = assay: Acute oral exposure of ovariectomized mice: Areg and Pgr expression in mammary gland; format: in vivo, mouse; conditions: 4 days, E2 250, BP3 3,000, PP 10,000 μg/kg/day
# Description: as §2, §3, §4
SMILES,nuclear γH2AX intensity (T47D cells [1]),nuclear γH2AX intensity (MCF-7 cells [2]),53BP1 nuclear intensity (T47D cells [3]),53BP1 nuclear intensity (MCF-7 cells [4]),expression of TFF1 vs control (TFF1),nuclear S9.6 staining in mammary epithelium over control treated animals (mammary epithelium) [fold],nuclear γH2AX intensity in the mammary gland vs vehicle control (mammary gland),transcriptional activation of ER-target genes (Areg and Pgr) (Areg and Pgr),increase in expression of TFF1 (TFF1; 10 nM) [fold]
"CCCOC(=O)c1ccc(O)cc1 [PP, propyl parahydroxybenzoate]",significantly higher γH2AX intensity,dose-dependent increase in nuclear γH2AX intensity,dose-dependent increases in 53BP1 nuclear intensity,dose-dependent increases in 53BP1 nuclear intensity,did not differ from the control,3.8,increases,neither BP3 nor PP elicited significant responses,
"COc1ccc(C(=O)c2ccccc2)c(O)c1 [BP3, 2-Hydroxy-4-methoxybenzophenone]",increased γH2AX intensity,dose-dependent increase in nuclear γH2AX intensity,higher nuclear 53BP1 intensity over control,dose-dependent increase,did not differ from the control,2.5,significantly higher; also recorded: increases,neither BP3 nor PP elicited significant responses,
"C[C@]12CC[C@@H]3c4ccc(O)cc4CC[C@H]3[C@@H]1CC[C@@H]2O [E2, 17β-estradiol, reference compound]",dose-dependent increase,dose-dependent increase in nuclear γH2AX intensity,dose-dependent increases in 53BP1 nuclear intensity,dose-dependent increases in 53BP1 nuclear intensity,,3.8,significantly higher,stimulated,13.1
